Results as given in patent US20040254161A1, “New benzothiazine and benzothiadiazine compounds” (priority 2003, published 2004).

tested on: not given; test: not given; conditions: not given

SMILES | melting point [°C]
CC(=O)NCc1cccc(Oc2ccc3c(c2)S(=O)(=O)NC2CCCN32)c1 (stereo not drawn) [Example 3, N-{3-[(5,5-Dioxido-2,3,3a,4-tetrahydro-1H-pyrrolo[2,1-c][1,2,4]-benzothiadiazin-7-yl)oxy]benzyl}acetamide] | 58
O=S1(=O)NC2CCCN2c2ccc(Oc3cccc(CNS(=O)(=O)C(F)(F)F)c3)cc21 (stereo not drawn) [Example 9, N-{3-[(5,5-Dioxido-2,3,3a,4-tetrahydro-1H-pyrrolo[2,1-c][1,2,4]-benzothiadiazin-7-yl)oxy]benzyl}(trifluoro)methanesulphonamide] | 104 to 113
CC(C)S(=O)(=O)NCc1cccc(Oc2ccc3c(c2)S(=O)(=O)NC2CCCN32)c1 (stereo not drawn) [Example 18, N-{3-[(5,5-Dioxido-2,3,3a,4-tetrahydro-1H-pyrrolo[2,1-c][1,2,4]-benzothiadiazin-7-yl)oxy]benzyl}propane-2-sulphonamide] | 112 to 118

tested on: AMPA receptors; test: Excitatory currents induced by AMPA in Xenopus oocytes (two-electrode voltage-clamp); type: cell-based; conditions: Xenopus oocytes injected with rat cerebral cortex poly(A+) mRNA; AMPA 10 μM; 20-24° C., OR2 medium
Description: Study of the Excitatory Currents Induced by AMPA in Xenopus oocytes
mRNA's are prepared from cerebral cortex of male Wistar rats by the guanidinium thiocyanate/phenol/chloroform method. The poly (A^+) mRNA's are isolated by chromatography on oligo-dT cellulose and injected at a level of 50 ng per oocyte. The oocytes are incubated for 2 to 3 days at 18° C. to permit expression of the receptors and are then stored at 8-10° C.
Electrophysiological recording is carried out in a Plexiglass® chamber at 20-24° C. in OR2 medium (J. Exp. Zool., 1973, 184, 321-334) by the “voltage-clamp” method using two electrodes, with a third electrode placed in the bath serving as reference.
All the compounds are applied via the incubation medium and the electric current is measured at the end of the application period. AMPA is used in a concentration of 10 μM. For each compound studied, the concentration that doubles (EC2X) or quintuples (EC5X) the intensity of the current induced by AMPA alone (5 to 50 nA) is determined.

SMILES | EC2X (concentration that doubles the intensity of the current induced by AMPA alone) [µM] | EC5X (concentration that quintuples the intensity of the current induced by AMPA alone) [µM]
Cl.NCc1cccc(Oc2ccc3c(c2)S(=O)(=O)NC2CCCN32)c1 (stereo not drawn) [Example 1, {3-[(5,5-Dioxido-2,3,3a,4-tetrahydro-1H-pyrrolo[2,1-c][1,2,4]-benzothiadiazin-7-yl)oxy]phenyl}methanamine hydrochloride] | 3.5 | 9.2
CS(=O)(=O)NCc1cccc(Oc2ccc3c(c2)S(=O)(=O)NC2CCCN32)c1 (stereo not drawn) [Example 2, N-{3-[(5,5-Dioxido-2,3,3a,4-tetrahydro-1H-pyrrolo[2,1-c][1,2,4]-benzothiadiazin-7-yl)oxy]benzyl}methanesulphonamide] | 0.35 | 2.6
CS(=O)(=O)NCc1ccc(Oc2ccc3c(c2)S(=O)(=O)NC2CCCN32)cc1 (stereo not drawn) [Example 21, N-{4-[(5,5-Dioxido-2,3,3a,4-tetrahydro-1H-pyrrolo[2,1-c][1,2,4]-benzothiadiazin-7-yl)oxy]benzyl}methanesulphonamide] | 0.1 | 0.56
